Measured values from patent US20090143434A1 (priority 2007, published 2009).

Key:
[1] = biological target: hNav1.5 (Homo sapiens, UniProt Q14524); assay: voltage clamp currents in mammalian cells stably transfected with cloned ion channel cDNA, hNav1.5; format: cell-based
Source text: (§1) Nonlinear least squares fits of the current ratio data yielded the best fit value for the IC50 concentration. A positive control was included for each channel tested in the study.

[2] = biological target: T1, hKv1.1 (Homo sapiens, UniProt Q09470); assay: voltage clamp currents in mammalian cells stably transfected with cloned ion channel cDNA, hKv1.1; format: cell-based
T1 construct: expressed in transfected cells
Source text: as §1

[3] = biological target: hCav3.2 (Homo sapiens, UniProt O95180); assay: cell-based
Source text: as §1

[4] = biological target: hCav1.2 (Homo sapiens, UniProt Q13936); assay: voltage clamp currents in mammalian cells stably transfected with cloned ion channel cDNA, hCav1.2; format: cell-based
Source text: as §1

[5] = biological target: T2, hNav1.3 (Homo sapiens, UniProt Q9NY46); assay: voltage clamp currents in mammalian cells stably transfected with cloned ion channel cDNA, hNav1.3; format: cell-based
T2 construct: expressed in transfected cells
Source text: as §1

[6] = biological target: T3, hHCN4 (Homo sapiens, UniProt Q9Y3Q4); assay: voltage clamp currents in mammalian cells stably transfected with cloned ion channel cDNA, hHCN4; format: cell-based
T3 construct: expressed in transfected cells
T3 sequence (Q9Y3Q4 1-1203): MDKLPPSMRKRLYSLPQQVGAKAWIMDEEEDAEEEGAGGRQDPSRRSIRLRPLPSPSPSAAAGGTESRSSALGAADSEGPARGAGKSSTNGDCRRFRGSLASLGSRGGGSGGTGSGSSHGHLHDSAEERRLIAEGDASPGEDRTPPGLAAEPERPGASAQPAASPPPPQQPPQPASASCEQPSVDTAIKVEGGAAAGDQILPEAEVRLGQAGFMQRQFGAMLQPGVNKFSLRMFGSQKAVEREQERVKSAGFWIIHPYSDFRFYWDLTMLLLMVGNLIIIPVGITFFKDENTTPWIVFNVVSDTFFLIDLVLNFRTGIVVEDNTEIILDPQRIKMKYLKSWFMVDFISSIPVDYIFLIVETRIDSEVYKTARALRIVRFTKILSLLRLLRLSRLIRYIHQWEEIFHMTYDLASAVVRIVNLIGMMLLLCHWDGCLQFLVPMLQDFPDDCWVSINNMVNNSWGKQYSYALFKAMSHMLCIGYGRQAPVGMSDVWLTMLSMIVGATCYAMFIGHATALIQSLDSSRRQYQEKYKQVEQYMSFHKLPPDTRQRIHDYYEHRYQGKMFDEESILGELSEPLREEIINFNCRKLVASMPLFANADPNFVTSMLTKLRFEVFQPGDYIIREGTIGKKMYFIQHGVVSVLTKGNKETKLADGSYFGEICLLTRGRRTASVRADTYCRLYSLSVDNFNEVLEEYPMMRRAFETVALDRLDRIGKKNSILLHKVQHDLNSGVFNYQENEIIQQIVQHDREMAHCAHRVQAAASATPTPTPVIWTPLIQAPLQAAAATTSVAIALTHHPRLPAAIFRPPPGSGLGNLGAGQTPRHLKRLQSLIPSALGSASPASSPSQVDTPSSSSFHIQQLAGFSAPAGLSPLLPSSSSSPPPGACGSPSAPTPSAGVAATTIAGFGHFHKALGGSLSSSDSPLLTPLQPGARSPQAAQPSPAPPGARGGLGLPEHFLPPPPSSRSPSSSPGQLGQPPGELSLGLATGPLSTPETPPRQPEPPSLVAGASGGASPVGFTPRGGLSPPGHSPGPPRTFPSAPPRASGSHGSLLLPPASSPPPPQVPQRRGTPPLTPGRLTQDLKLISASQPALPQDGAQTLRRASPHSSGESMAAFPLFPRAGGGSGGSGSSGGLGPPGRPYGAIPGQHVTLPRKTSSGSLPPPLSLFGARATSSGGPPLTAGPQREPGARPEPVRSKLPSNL
Source text: as §1

[7] = biological target: T4, hKv4.3 (Homo sapiens, UniProt Q9UK17); assay: voltage clamp currents in mammalian cells stably transfected with cloned ion channel cDNA, hKv4.3; format: cell-based
T4 construct: expressed in transfected cells
T4 sequence (Q9UK17 1-655): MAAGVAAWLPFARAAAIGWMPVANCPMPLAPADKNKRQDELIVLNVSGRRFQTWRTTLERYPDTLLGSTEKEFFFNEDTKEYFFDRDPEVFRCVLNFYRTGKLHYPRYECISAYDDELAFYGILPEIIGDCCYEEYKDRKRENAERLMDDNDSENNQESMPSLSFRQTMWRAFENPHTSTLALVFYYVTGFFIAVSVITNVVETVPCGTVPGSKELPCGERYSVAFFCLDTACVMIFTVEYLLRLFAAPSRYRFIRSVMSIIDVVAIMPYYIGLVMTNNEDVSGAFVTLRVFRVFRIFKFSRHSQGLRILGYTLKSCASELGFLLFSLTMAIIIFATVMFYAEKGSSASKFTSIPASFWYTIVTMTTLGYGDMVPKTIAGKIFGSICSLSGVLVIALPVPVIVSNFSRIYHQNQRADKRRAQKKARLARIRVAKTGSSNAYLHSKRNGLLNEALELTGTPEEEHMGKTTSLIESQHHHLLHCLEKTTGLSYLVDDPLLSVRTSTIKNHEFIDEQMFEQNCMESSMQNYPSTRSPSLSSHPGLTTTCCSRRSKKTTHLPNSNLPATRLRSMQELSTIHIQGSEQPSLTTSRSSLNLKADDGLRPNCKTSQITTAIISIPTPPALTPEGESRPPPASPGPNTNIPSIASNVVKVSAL
Source text: as §1

[8] = biological target: hKv1.3 (Homo sapiens, UniProt P22001); assay: voltage clamp currents in mammalian cells stably transfected with cloned ion channel cDNA, hKv1.3; format: cell-based
Source text: as §1

[9] = biological target: T5, hERG (Homo sapiens, UniProt Q12809); assay: voltage clamp currents in mammalian cells stably transfected with cloned ion channel cDNA, hERG; format: cell-based
T5 construct: expressed in transfected cells
Source text: as §1

[10] = 0.1 Hz, read-out: Estimated IC50 at 0.1 Hz

T1 sequence (Q09470 whole entry): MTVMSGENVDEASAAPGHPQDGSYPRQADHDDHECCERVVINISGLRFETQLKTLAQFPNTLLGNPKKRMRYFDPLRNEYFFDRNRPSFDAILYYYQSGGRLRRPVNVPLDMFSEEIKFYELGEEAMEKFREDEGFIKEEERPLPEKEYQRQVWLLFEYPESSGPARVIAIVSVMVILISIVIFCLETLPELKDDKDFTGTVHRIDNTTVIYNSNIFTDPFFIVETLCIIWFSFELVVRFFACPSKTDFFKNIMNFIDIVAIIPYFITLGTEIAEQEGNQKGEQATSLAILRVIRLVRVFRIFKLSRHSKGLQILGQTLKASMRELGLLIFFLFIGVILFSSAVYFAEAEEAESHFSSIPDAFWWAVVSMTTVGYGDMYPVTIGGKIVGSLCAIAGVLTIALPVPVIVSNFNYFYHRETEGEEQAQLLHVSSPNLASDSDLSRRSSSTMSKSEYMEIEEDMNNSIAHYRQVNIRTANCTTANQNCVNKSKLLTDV
T2 sequence (Q9NY46 whole entry): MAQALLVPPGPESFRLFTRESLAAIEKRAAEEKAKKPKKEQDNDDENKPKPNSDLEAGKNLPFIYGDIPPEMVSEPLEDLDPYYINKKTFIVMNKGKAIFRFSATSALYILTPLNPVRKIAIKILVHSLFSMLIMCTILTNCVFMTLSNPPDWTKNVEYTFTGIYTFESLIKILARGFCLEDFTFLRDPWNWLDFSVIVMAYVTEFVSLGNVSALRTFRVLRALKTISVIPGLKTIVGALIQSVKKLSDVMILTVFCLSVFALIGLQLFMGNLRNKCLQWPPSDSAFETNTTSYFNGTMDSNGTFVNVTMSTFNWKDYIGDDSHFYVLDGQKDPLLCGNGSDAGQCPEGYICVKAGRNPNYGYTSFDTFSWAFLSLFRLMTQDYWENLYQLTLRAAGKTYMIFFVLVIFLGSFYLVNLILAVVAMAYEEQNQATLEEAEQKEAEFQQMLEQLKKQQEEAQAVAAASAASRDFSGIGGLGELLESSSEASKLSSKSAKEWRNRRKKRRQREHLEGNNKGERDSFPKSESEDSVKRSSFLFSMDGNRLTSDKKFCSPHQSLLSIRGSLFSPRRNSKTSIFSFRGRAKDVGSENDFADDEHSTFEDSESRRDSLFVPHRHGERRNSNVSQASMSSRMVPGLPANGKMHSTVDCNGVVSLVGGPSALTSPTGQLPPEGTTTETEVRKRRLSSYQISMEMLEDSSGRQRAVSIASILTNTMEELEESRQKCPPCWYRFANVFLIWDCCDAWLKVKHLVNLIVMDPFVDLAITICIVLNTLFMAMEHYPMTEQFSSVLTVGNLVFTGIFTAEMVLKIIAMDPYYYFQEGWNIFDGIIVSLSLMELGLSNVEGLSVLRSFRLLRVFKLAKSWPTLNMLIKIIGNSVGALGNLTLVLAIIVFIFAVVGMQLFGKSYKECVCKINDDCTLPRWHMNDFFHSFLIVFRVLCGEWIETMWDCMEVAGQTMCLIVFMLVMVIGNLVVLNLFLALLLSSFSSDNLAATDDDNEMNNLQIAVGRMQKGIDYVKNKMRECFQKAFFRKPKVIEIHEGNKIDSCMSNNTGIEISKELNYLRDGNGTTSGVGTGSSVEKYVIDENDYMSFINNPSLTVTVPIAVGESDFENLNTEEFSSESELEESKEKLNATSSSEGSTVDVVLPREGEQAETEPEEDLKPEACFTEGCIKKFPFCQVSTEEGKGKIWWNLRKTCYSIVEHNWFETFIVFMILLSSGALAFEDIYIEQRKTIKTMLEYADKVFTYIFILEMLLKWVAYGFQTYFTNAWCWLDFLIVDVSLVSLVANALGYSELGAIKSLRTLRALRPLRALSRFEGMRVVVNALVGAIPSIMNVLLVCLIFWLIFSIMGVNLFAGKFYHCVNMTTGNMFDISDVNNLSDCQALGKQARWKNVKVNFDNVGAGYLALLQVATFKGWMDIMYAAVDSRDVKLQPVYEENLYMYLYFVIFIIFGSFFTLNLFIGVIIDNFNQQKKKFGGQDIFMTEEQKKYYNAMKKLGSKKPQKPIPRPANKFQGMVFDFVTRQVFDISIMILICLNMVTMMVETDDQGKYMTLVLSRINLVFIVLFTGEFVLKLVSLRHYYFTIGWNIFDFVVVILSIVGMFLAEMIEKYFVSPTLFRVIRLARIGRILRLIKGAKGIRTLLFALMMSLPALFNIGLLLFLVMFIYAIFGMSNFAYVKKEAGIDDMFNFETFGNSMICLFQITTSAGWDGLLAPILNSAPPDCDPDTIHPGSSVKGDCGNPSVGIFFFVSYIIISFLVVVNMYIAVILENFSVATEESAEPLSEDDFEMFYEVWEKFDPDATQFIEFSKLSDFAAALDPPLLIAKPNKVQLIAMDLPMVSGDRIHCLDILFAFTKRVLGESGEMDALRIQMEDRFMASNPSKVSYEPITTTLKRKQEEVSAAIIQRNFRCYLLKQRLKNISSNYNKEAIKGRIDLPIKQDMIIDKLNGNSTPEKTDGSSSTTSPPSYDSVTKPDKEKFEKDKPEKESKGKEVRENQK
Sequence of hNav1.5 (Q14524 whole entry): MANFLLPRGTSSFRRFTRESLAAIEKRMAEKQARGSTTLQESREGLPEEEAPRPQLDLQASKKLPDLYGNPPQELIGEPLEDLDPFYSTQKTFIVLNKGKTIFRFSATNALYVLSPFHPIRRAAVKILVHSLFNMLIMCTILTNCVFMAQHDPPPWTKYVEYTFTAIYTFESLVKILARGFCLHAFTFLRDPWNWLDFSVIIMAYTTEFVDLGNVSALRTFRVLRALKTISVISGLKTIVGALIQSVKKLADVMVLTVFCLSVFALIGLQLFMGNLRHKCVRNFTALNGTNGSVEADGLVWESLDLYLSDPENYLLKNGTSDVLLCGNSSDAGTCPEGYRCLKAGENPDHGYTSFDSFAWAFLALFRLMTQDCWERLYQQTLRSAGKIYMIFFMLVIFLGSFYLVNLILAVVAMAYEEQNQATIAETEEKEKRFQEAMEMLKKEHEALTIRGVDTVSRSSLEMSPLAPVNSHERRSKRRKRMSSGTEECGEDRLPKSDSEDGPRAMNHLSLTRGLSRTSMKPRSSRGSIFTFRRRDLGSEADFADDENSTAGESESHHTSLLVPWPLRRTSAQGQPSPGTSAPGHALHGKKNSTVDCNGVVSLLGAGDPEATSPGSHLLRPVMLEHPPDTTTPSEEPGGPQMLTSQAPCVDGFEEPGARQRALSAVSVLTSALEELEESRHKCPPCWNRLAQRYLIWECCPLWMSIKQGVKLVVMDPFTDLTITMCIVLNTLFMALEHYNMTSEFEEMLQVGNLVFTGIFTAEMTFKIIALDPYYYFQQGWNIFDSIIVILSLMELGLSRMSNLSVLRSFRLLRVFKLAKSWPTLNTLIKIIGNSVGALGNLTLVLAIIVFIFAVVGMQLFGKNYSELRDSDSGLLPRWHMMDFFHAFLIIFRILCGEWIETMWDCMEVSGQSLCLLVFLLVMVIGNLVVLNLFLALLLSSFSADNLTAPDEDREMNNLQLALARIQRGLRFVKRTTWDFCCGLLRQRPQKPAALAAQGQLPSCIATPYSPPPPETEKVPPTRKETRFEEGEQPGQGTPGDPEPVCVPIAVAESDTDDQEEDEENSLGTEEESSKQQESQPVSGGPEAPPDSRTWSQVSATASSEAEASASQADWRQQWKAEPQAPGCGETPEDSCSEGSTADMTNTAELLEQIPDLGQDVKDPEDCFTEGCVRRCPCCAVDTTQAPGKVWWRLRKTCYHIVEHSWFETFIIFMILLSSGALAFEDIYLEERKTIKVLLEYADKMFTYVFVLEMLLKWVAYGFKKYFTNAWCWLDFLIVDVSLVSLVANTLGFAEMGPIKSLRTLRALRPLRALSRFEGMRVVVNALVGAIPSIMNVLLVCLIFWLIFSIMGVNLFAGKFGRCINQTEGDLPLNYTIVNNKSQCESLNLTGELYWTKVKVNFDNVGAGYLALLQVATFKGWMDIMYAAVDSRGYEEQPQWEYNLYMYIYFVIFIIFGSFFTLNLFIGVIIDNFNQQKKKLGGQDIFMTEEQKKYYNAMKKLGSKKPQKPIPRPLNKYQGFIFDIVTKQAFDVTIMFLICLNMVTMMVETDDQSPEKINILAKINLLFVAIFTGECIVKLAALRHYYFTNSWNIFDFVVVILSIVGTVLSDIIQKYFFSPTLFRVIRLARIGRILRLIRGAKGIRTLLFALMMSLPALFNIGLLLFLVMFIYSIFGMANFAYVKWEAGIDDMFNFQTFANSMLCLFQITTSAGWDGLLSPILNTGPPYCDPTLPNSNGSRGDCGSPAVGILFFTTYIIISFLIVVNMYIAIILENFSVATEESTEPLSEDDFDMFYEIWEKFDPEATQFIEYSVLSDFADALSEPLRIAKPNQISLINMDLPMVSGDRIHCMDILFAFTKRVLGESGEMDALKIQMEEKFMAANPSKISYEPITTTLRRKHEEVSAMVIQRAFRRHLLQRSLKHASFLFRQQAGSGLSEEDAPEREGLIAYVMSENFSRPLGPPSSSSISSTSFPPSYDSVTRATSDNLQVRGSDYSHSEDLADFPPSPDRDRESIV
Sequence of hKv1.3 (P22001 whole entry): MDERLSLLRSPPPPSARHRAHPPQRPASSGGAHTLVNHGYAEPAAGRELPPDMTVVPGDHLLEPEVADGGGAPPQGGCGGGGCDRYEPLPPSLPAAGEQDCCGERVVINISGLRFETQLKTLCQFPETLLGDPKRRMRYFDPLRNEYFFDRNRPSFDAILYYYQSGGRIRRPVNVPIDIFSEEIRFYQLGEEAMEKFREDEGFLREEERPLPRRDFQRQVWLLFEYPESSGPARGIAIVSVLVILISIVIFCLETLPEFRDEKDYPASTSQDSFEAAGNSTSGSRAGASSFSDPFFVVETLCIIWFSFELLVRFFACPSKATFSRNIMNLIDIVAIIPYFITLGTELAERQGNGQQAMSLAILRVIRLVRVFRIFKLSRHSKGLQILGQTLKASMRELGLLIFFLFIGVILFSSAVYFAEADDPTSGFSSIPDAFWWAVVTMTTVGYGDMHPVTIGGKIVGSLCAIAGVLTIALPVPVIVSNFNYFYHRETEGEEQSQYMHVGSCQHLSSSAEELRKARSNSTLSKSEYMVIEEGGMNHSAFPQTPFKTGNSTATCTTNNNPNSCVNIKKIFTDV

% Block at 10 μM/0.1 Hz ([2]; 10 μM): 1.9% | IC50 [2, 10]: 516 µM | IC50 ([3]; Estimated IC50 at 0.1 Hz, 0.1 Hz): 10.2 µM | IC50 ([3]; Estimated IC50 at 3 Hz, 3 Hz): 1.22 µM | % Block at 10 μM/0.1 Hz ([5]; 10 μM): 4.6% | IC50 [5, 10]: 207 µM | % Block at 10 μM/0.1 Hz ([6]; 10 μM): 20.3% | IC50 [6, 10]: 30.3 µM | % Block at 10 μM/0.1 Hz ([7]; 10 μM): 0.5% | IC50 [7, 10]: 1990 µM | % Block at 10 μM/0.1 Hz ([8]; 10 μM): 17.6% | IC50 [8, 10]: 46.8 µM
Compound: O=c1[nH]c2ccccc2n1CCCN1CCC(n2c(=O)[nH]c3cc(Cl)ccc32)CC1 [domperidone, 1,3-dihydro-5-chloro-1-(1-(3-(2,3-dihydro-2-oxo-1H-benzimidazol-1-yl)propyl)-4-piperidinyl)-2H-benzimidazol-2-one]
% Block at 1 μM/3 Hz ([1]; 1 μM, 3 Hz): 23.7% | % Block at 10 μM/0.1 Hz ([1]; 10 μM, 0.1 Hz): 37.3% | % Block at 1 μM/3 Hz ([4]; 1 μM, 3 Hz): 49.6% | % Block at 10 μM/0.1 Hz ([4]; 10 μM, 0.1 Hz): 9% | % Block at 1 μM/3 Hz ([9]; 1 μM, 3 Hz): 98.0% | % Block at 10 μM/0.1 Hz ([9]; 10 μM, 0.1 Hz): 95.5%
